Experimental data published in PubChem BioAssay (NCI).
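Results reflect a 48-hour exposure of cells in 96-well plates to compound at five concentrations. TGI: concentration producing complete growth inhibition.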

Key:
Assay in all cases: NCI tumour cell line growth inhibition, 48 h
786-0 renal = tested on: 786-0 renal
IGROV1 ovarian = tested on: IGROV1 ovarian
KM12 colon = tested on: KM12 colon
M14 melanoma = tested on: M14 melanoma
MCF7 breast = tested on: MCF7 breast
MDA-N = tested on: MDA-N
NCI-H522 lung = tested on: NCI-H522 lung
OVCAR-5 ovarian = tested on: OVCAR-5 ovarian
SNB-75 CNS = tested on: SNB-75 CNS
TK-10 renal = tested on: TK-10 renal
UACC-257 melanoma = tested on: UACC-257 melanoma

| Compound | TGI (786-0 renal) [µM] | TGI (IGROV1 ovarian) [µM] | TGI (KM12 colon) [µM] | TGI (M14 melanoma) [µM] | TGI (MCF7 breast) [µM] | TGI (MDA-N) [µM] | TGI (NCI-H522 lung) [µM] | TGI (OVCAR-5 ovarian) [µM] | TGI (SNB-75 CNS) [µM] | TGI (TK-10 renal) [µM] | TGI (UACC-257 melanoma) [µM] |
| --- | --- | --- | --- | --- | --- | --- | --- | --- | --- | --- | --- |
| CN(C)c1ccc(/C=N/n2c(-c3ccccc3)nc3ccccc3c2=O)cc1 | > 100 | > 100 | > 100 | > 100 | > 100 | > 100 | > 100 | > 100 | > 100 | > 100 | > 100 |
| COC(=O)C1=COC(C)C2C[n+]3ccc4c([nH]c5ccccc54)c3CC12 (stereo not given) | > 100 | > 100 | > 100 | > 100 | > 100 | > 100 | > 100 | > 100 | > 100 | > 100 | > 100 |
| CC(=O)OC(CC(C)C)P1(=O)N(CC(C)(C)C)[C@@H]2CCCC[C@H]2N1CC(C)(C)C (stereo not given in full) | 23.9 | 24.2 | 24.1 | 19.8 | 17.4 | 21.3 | 19.2 | 22.9 | 20.6 | 24.7 | 21.4 |
| O=c1c2ncn(C3CCCCO3)c2n(-c2ccccc2)c(=S)n1-c1ccccc1 (stereo not given) | > 86.2 | 69.2 | > 100 | > 100 | > 100 | > 100 | > 86.7 | > 76.5 | 20.7 | 83 | > 100 |
| O=C(O)CS(=O)c1ccc2c3c(cccc13)C(=O)c1ccccc1-2 (stereo not given) | > 100 | > 100 | > 100 | > 100 | > 100 | > 100 | > 100 | > 100 | > 100 | > 100 | > 100 |
| O=c1[nH]nc(-c2ccc([N+](=O)[O-])cc2)n1/N=C/c1ccc([N+](=O)[O-])cc1 | > 100 | > 100 | > 100 | > 100 | > 100 | > 100 | > 100 | > 100 | > 100 | > 100 | > 100 |
| COC(=O)c1c(O)ccc2c1c1c(n2Cc2ccc(OC)cc2)C(=O)c2ccccc2C1=O | 28.5 | 21.4 | 45.3 | 32.4 | 26.7 | 32.7 | 17.1 | 51.7 | 85.8 | > 100 | 94.3 |
| N#Cc1nc(C(F)(F)F)oc1N | > 100 | > 100 | > 100 | > 100 | > 100 | > 100 | > 100 | > 100 | > 100 | > 100 | > 100 |
| COc1ccc2c(c1)c(=O)c1c(NCCCN(C)CCCNc3ccc4c(=O)n(CCN(C)C)c(=O)n5c6ccc(OC)cc6c(=O)c3c45)ccc3c(=O)n(CCN(C)C)c(=O)n2c31 | 1.48 | 0.584 | 1.11 | 2.58 | 1.12 | 1.49 | 0.544 | 3.63 | 0.216 | 6.6 | 2.11 |
| CCOC(=O)c1[nH]cnc1/N=N/N(C)N | > 100 | > 100 | 14 | > 100 | > 100 | > 100 | 78.7 | > 100 | > 100 | > 100 | > 100 |
| Cc1ccc(S(=O)(=O)Nc2nc3ccccc3c(=O)n2C2CCCCC2)cc1 | > 100 | > 100 | > 100 | > 100 | > 100 | > 100 | > 100 | > 100 | > 100 | > 100 | > 100 |
| Cc1c(C#N)c2nnn(-c3ccc([N+](=O)[O-])cc3)c(=O)n2c1-c1ccccc1 | 26.6 | 33.6 | 20.5 | 25 | 19.6 | 31.3 | 13.9 | 40.1 | 39.7 | > 100 | 47.6 |
| COc1ccc(C[C@H]2NC(=O)/C=C/C[C@@H]([C@H](C)[C@H]3O[C@@H]3c3ccccc3)OC(=O)[C@H](CC(C)C)OC(=O)[C@H](C)CNC2=O)cc1 | > 0.0001 | > 0.0001 | > 0.0001 | 6.84e-05 | > 0.0001 | 2.32e-05 | > 0.0001 | > 0.0001 | > 9.19e-05 | > 0.0001 | > 0.0001 |
| Nc1nc2cc(CNc3ccc(C(=O)O)cc3)ccc2nc1-c1ccccc1 | > 100 | > 100 | – | > 100 | > 100 | > 100 | > 100 | > 100 | > 100 | > 100 | > 100 |
| Cc1ccc2ccc(=O)oc2c1 | > 100 | > 100 | > 100 | > 100 | > 100 | > 100 | > 100 | > 100 | > 100 | > 100 | > 100 |
| COc1ccc(-c2cc(C3CC3)nc(SCC(=O)O)c2C#N)cc1 | > 100 | > 100 | > 100 | > 100 | > 100 | > 100 | 71.6 | > 100 | > 100 | > 100 | > 100 |
| COc1ccc(C2c3cc4c(cc3OC(NNC(N)=O)C2C)OCO4)cc1 (stereo not given) | 37.5 | > 100 | > 100 | > 60.1 | > 100 | 6.86 | 18.3 | > 100 | > 33.3 | > 100 | > 100 |
| O=c1[nH]nc(Cc2ccccc2)n1/N=C/c1ccc([N+](=O)[O-])o1 | 22.7 | 15.7 | 6.49 | 7.1 | > 100 | 4.83 | 3.87 | 26.1 | 15 | 17.6 | 19.7 |
| CC(=O)[C@H]1CC[C@H]2[C@@H]3CCC4=CC(=O)CC[C@]4(C)[C@H]3CC[C@]12C | 54.2 | 71.4 | 31.5 | 32.4 | 50.4 | 35.9 | 31 | 50.9 | 65.6 | 52.2 | 27.2 |
| COc1ccc2c(c1)C1Oc3ccccc3CC1(O)CO2 (stereo not given) | > 100 | > 100 | > 100 | > 100 | > 100 | > 100 | > 100 | > 100 | > 100 | > 100 | > 100 |

| Compound | TGI (786-0 renal) [µM] | TGI (IGROV1 ovarian) [µM] | TGI (KM12 colon) [µM] | TGI (M14 melanoma) [µM] | TGI (MCF7 breast) [µM] | TGI (MDA-N) [µM] | TGI (NCI-H522 lung) [µM] | TGI (OVCAR-5 ovarian) [µM] | TGI (SNB-75 CNS) [µM] | TGI (TK-10 renal) [µM] | TGI (UACC-257 melanoma) [µM] |
| --- | --- | --- | --- | --- | --- | --- | --- | --- | --- | --- | --- |
| COc1cc(CCNC2=CC(=O)c3cccnc3C2=O)ccc1O | 3.67 | 4.3 | 13.2 | 2.98 | 1.3 | 0.308 | 2.26 | 2.99 | 2.06 | 30.5 | 2.18 |
| Cc1c(C)c2c(c(N)c1C#N)C(=O)N(OS(=O)(=O)c1ccccc1)C2=O | 30.3 | 37.7 | > 100 | 41.6 | > 100 | 80.8 | 34 | > 100 | > 100 | 37.2 | 68 |
| Cc1ccc(S(=O)(=O)N(CC(O)c2ccccc2)c2ccccc2F)cc1 (stereo not given) | 34.7 | 41.2 | 42.6 | 31.9 | 28 | 33.8 | 32 | 41 | 30.3 | 45.8 | 16.1 |
| C/C=C1\CN2CCC34c5ccccc5N(C)C35OCC4(C(=O)OC)C1CC25 (stereo not given) | > 100 | > 100 | > 100 | 45.4 | > 100 | > 100 | > 100 | > 100 | > 100 | > 100 | > 100 |
| NNC(=O)Cc1cccnc1 | > 100 | > 100 | > 100 | > 100 | > 100 | > 100 | > 100 | > 100 | > 100 | > 100 | > 100 |
| CC1(C)CC(=O)C2=C(C1)NC(SCC(=O)O)=C(C#N)C2c1ccc(Br)cc1 (stereo not given) | > 100 | > 100 | > 100 | > 100 | > 100 | > 100 | > 100 | > 100 | > 100 | > 100 | > 100 |
| COC(=O)c1c(C)ccc2c(O)c3c(cc12)C(=O)c1c2c(cc(O)c1C3=O)C1(C)OC(C)(O2)C(O)C(N(C)C)C1O (stereo not given) | 1.95 | – | 2.97 | 10.4 | 8.04 | 2.58 | 2.33 | 7.19 | 12.7 | 2.68 | 3.09 |
| CC(C)=CC(C)C(C(O)CCC1(c2ccoc2)OCCO1)S(=O)(=O)c1ccccc1 (stereo not given) | > 100 | > 100 | > 100 | > 100 | > 100 | > 100 | > 100 | > 100 | > 100 | > 100 | > 100 |
| c1ccc2c(c1)CCN(C1=NCCO1)C2 | > 10 | > 10 | > 10 | > 10 | > 10 | > 10 | > 10 | > 10 | > 10 | > 10 | > 10 |
| O=C1OC(C2Cc3ccccc3C2=O)c2ccccc21 (stereo not given) | > 100 | > 100 | > 100 | > 100 | > 100 | > 100 | > 100 | > 100 | > 100 | > 100 | > 100 |
| N#Cc1ccc(OC(=O)c2ccc(N=C(N)N)cc2)cc1 | > 100 | > 100 | > 100 | > 100 | > 100 | > 100 | > 100 | > 100 | > 100 | > 100 | > 100 |
| COC(=O)C1=C(O)C(C(=O)OC)[C@]2(O)[C@H](C(=O)OC)[C@H]1C[C@@H](c1cccc(OC)c1)[C@H]2C(=O)OC (stereo not given in full) | 56.1 | > 100 | 69.8 | > 100 | > 100 | 64.4 | 33.3 | 66.4 | > 100 | > 100 | > 100 |
| O=C(O)C(F)(F)C(F)(F)C(F)(F)C(F)(F)C(=O)O | > 100 | > 100 | > 100 | > 100 | > 100 | > 100 | > 100 | > 100 | > 100 | > 100 | > 100 |
| O=C1c2n[nH]nc2C(=O)c2n[nH]nc21 | > 100 | > 100 | > 100 | > 100 | > 100 | > 100 | > 100 | > 100 | > 100 | > 100 | > 100 |
| O=C(Nc1ccccc1)c1cc(S(=O)(=O)Nc2n[nH]c(=O)[nH]2)c(SSc2cc(Cl)c(C(=O)Nc3ccccc3)cc2S(=O)(=O)Nc2n[nH]c(=O)[nH]2)cc1Cl | > 100 | > 100 | > 100 | > 100 | > 100 | > 100 | > 100 | > 100 | > 100 | > 100 | > 100 |
| [N-]=[N+]=NC1=NNC2(C(=O)N1)c1ccccc1-c1ccccc12 | > 100 | > 100 | – | > 100 | > 100 | > 100 | > 100 | > 100 | > 100 | > 100 | > 100 |
| CCSCC(=O)N1CCc2c([nH]c3ccccc23)C1=O | > 100 | > 100 | > 100 | > 100 | > 100 | > 100 | > 100 | > 100 | > 100 | > 100 | > 100 |
| COC(=O)c1ccc(CCC2=CC(=O)C(Br)=CC2=O)cc1 | 35.2 | 28.7 | 32.3 | 28.3 | 34.9 | 31.4 | 10.5 | 33.6 | 26.9 | 31.1 | 29 |
| CC(=O)Nc1ccc(N2C(=O)CS(=O)(=O)C2c2cccc(Oc3ccccc3)c2)cc1 (stereo not given) | 35.7 | – | 47.2 | 33.9 | 35.9 | 32.5 | 41.9 | 37.2 | 55.2 | 41.7 | 33.8 |
